Measured values taken from patent publication US20250179057A1, “MEK IMMUNE ONCOLOGY INHIBITORS AND THERAPEUTIC USES THEREOF” (Immuneering Corporation, priority 2022, published 2025).

Columns and labels:
[1] = tested on: phospho-ERK in A375 cells; test: Cell-based pERK (pERK:tERK) in A375 cells; conditions: A375 (BRAF p.V600E); 100 nM
Experimental: Materials and Methods: A549 or A375 cells were seeded in 6-well plates at an appropriate seeding density on day 0. On day 2 or 3, after checking the health and confluency of cells, the media was aspirated and replaced with 1 mL media containing a predetermined concentration of compound and incubated for 2 hours. After 2 hours, the media was aspirated, and the cells washed 2 times with cold PBS. Cells were lysed on ice, with 50 uL 1×CST lysis buffer +1 mM PMSF for 5 minutes. After 5 minutes, cells were removed using a scraper and transferred to cold 1.5 mL tubes, and centrifuged for 10 min, 4° C., 14,000×g. Supernatant was gently removed and snap frozen in liquid nitrogen. Protein concentration of the lysate was determined using Bradford Reagent (analyzed using SpectraMax M2E) and diluted to 1 mg/mL or pERK or 1.5 mg/mL for pMEK analysis. […] All dilutions were in Milk-free antibody diluent.
A549 or […] cells were treated in duplicate for two hours with compounds at varying concentrations. After two hours, the cells were lysed, snap frozen, and stored at −80° C. After storage, the lysate was quantified with the Bradford assay. Before the lysates were prepared to run on the Jess, the lysates were diluted to 1 mg/mL for pERK analysis and 1.5 mg/mL pMEK analysis using quantitative Western blotting. ERK and MEK phosphorylation levels were estimated by taking the ratio of phospho-protein to total protein and normalizing to the DMSO control.
(§1) The nine models are described in Table 16.

[2] = tested on: phospho-ERK in SK-MEL-2 cells; test: pERK/tERK ratio in SK-MEL-2 melanoma model; format: cell-based; conditions: SK-MEL-2 (NRAS p.Q61R); 100 nM
Experimental: (§2) Compound (drug) treatment: Cells were plated in a 6-well plate at a density of 250,000-300,000 cells/well in 3 mL media and incubated 37° C. in a humidified, 5% CO2 incubator. […] These solutions were added to the cells (3 uL/well), mixed by swirling the plate, and incubated at 37° C. in a humidified, 5% CO2 incubator for 2 hours.
(§3) Cell lysis and protein estimation: Cells were washed with PBS, and scraped in 50 μL of lysis buffer containing protease and phosphatase inhibitors. Cell lysates were stored at −20° C. Cell lysates were thawed and spun at 12,000 rpm for one minute, 3 ul of the supernatant was added to 500 μL of Coomassie blue reagent following by 500 μL of water. […] Protein standards were used (0-20 mg/mL) to calculate protein concentrations of test samples.
(§4) All samples were heated at 95° C. for 5 minutes, cooled to room temperature and spun down. […] After the run, gel was removed and protein transfer was done using iBlot for 7 minutes, as per manufacturer's recommendations. After the transfer, nitrocellulose membrane was incubated on a shaker in 5 mL of blocking buffer at room temperature for 1 hr. The blot was then incubated overnight on a shaker in 5 ml of blocking buffer containing 0.2% Tween-20 and primary antibody, at room temperature. Anti-phospho-STAT3 antibody was used at a dilution of 1:500, the other 3 primary antibodies were used at a dilution of 1:1000.
(§5) Next day, the blot was washed 3 times for 10 min each with 10 mL of TBST followed by incubation on a shaker in 5 ml of blocking buffer containing 0.2% Tween-20 and 0.5 ul of the IRDye labeled secondary antibodies, diluted 1:10000, at room temperature for 1 hr. The blot was then washed 3 times for 10 min each with 10 mL of TBST and dried between sheets of paper towels. Imaging was done using LICOR's Odyssey imaging system, quantitation was done using their software, Image Studio version 3.1.
as §1

[3] = tested on: phospho-ERK in MM127 cells; test: pERK/tERK ratio in MM127 melanoma model; format: cell-based; conditions: MM127 (NRAS p.G13R, BRAF p.G464E); 100 nM
Experimental: as §2, §3, §4, §5, §1

[4] = tested on: phospho-ERK in MM415 cells; test: pERK/tERK ratio in MM415 melanoma model; format: cell-based; conditions: MM415 (NRAS p.Q61L); 100 nM
Experimental: as §2, §3, §4, §5, §1

[5] = tested on: phospho-ERK in MEL-JUSO cells; test: pERK/tERK ratio in MEL-JUSO melanoma model; format: cell-based; conditions: MEL-JUSO (HRAS p.G13D, NRAS p.Q61L); 100 nM
Experimental: as §2, §3, §4, §5, §1

[6] = tested on: phospho-ERK in SK-MEL-30 cells; test: pERK/tERK ratio in SK-MEL-30 melanoma model; format: cell-based; conditions: SK-MEL-30 (NRAS p.Q61K); 100 nM
Experimental: as §2, §3, §4, §5, §1

[7] = tested on: phospho-ERK in Hs852.T cells; test: pERK/tERK ratio in Hs852.T melanoma model; format: cell-based; conditions: Hs852.T (NRAS p.G12V); 100 nM
Experimental: as §2, §3, §4, §5, §1

[8] = tested on: phospho-ERK in MeWo cells; test: pERK/tERK ratio in MeWo melanoma model; format: cell-based; conditions: MeWo (NF1 LoF); 100 nM
Experimental: as §2, §3, §4, §5, §1

[9] = tested on: phospho-ERK in SK-MEL-28 cells; test: pERK/tERK ratio in SK-MEL-28 melanoma model; format: cell-based; conditions: SK-MEL-28 (BRAF p.V600E); 100 nM
Experimental: as §2, §3, §4, §5, §1

[10] = tested on: phospho-MEK in SK-MEL-2 cells; test: pMEK/tMEK ratio in SK-MEL-2 melanoma model; format: cell-based; conditions: SK-MEL-2 (NRAS p.Q61R); 100 nM
Experimental: as §2, §3, §4, §5, §1

[11] = tested on: phospho-MEK in MM127 cells; test: pMEK/tMEK ratio in MM127 melanoma model; format: cell-based; conditions: MM127 (NRAS p.G13R, BRAF p.G464E); 100 nM
Experimental: as §2, §3, §4, §5, §1

[12] = tested on: phospho-MEK in MM415 cells; test: pMEK/tMEK ratio in MM415 melanoma model; format: cell-based; conditions: MM415 (NRAS p.Q61L); 100 nM
Experimental: as §2, §3, §4, §5, §1

[13] = tested on: phospho-MEK in MEL-JUSO cells; test: pMEK/tMEK ratio in MEL-JUSO melanoma model; format: cell-based; conditions: MEL-JUSO (HRAS p.G13D, NRAS p.Q61L); 100 nM
Experimental: as §2, §3, §4, §5, §1

[14] = tested on: phospho-MEK in SK-MEL-30 cells; test: pMEK/tMEK ratio in SK-MEL-30 melanoma model; format: cell-based; conditions: SK-MEL-30 (NRAS p.Q61K); 100 nM
Experimental: as §2, §3, §4, §5, §1

[15] = tested on: phospho-MEK in Hs852.T cells; test: pMEK/tMEK ratio in Hs852.T melanoma model; format: cell-based; conditions: Hs852.T (NRAS p.G12V); 100 nM
Experimental: as §2, §3, §4, §5, §1

[16] = tested on: phospho-MEK in MeWo cells; test: pMEK/tMEK ratio in MeWo melanoma model; format: cell-based; conditions: MeWo (NF1 LoF); 100 nM
Experimental: as §2, §3, §4, §5, §1

[17] = tested on: phospho-MEK in A375 cells; test: pMEK/tMEK ratio in A375 melanoma model; format: cell-based; conditions: A375 (BRAF p.V600E); 100 nM
Experimental: as §2, §3, §4, §5, §1

[18] = tested on: phospho-MEK in SK-MEL-28 cells; test: pMEK/tMEK ratio in SK-MEL-28 melanoma model; format: cell-based; conditions: SK-MEL-28 (BRAF p.V600E); 100 nM
Experimental: as §2, §3, §4, §5, §1

[19] = PubChem Compound Summary; cited from earlier work

Cn1cnc2c(F)c(Nc3ccc(Br)cc3F)c(C(=O)NOCCO)cc21 [Binimetinib]
pERK/tERK ratio normalized to DMSO [1]: 0.136
pERK/tERK ratio normalized to DMSO [2]: 0.125
pERK/tERK ratio normalized to DMSO [3]: 0.199
pERK/tERK ratio normalized to DMSO [4]: 0.056
pERK/tERK ratio normalized to DMSO [5]: 0.139
pERK/tERK ratio normalized to DMSO [6]: 0.082
pERK/tERK ratio normalized to DMSO [7]: 0.203
pERK/tERK ratio normalized to DMSO [8]: 0.161
pERK/tERK ratio normalized to DMSO [9]: 0.079
pMEK/tMEK ratio normalized to DMSO [10]: 2.587
pMEK/tMEK ratio normalized to DMSO [11]: 3.009
pMEK/tMEK ratio normalized to DMSO [12]: 3.055
pMEK/tMEK ratio normalized to DMSO [13]: 3.291
pMEK/tMEK ratio normalized to DMSO [14]: 2.649
pMEK/tMEK ratio normalized to DMSO [15]: 6.489
pMEK/tMEK ratio normalized to DMSO [16]: 7.42
pMEK/tMEK ratio normalized to DMSO [17]: 1.062
pMEK/tMEK ratio normalized to DMSO [18]: 1.055
human plasma drug half-life [19]: 3.5 h
